Source: US6187552A, “Method for identifying inhibitors of JAK2/cytokine receptor binding” (Pharmacia & Upjohn Company, priority 1998, dated 2001)

Tested on: βc in human eosinophils
Test: Tyrosine phosphorylation of βc in human eosinophils stimulated with IL-5 (immunoblot)
Format: cell-based
Conditions: FIG. 2
Experimental: Eosinophils were isolated from human whole blood or granulocyte leukapheresis packs obtained from Pharmacia and Upjohn Clinical Research Unit--Kalamazoo, Mich. Only blood from donors who had >5% peripheral blood eosinophils was used, while leukapheresis donors usually had 3-5% eosinophils. One unit of whole blood was divided among 50-ml polypropylene centrifuge tubes and centrifuged for 20 minutes at 300×g at room temperature (RT). The plasma was removed and 50 ml were centrifuged at 2500×g for 15 minutes at RT to remove platelets. The resulting platelet poor plasma (ppp) was diluted 1:4 in normal saline.
Immediately after purification, eosinophils were resuspended at 2×10^7 cells/ml in RPMI 1640 medium (GibcoBRL, Gaithersburg, Md.) supplemented with 1% fetal bovine serum (FBS, GibcoBRL, Gaithersburg,Md.) and incubated 2 min at 37°. Recombinant human IL-5 (Biosource, Camarillo, Calif.) diluted in PBS with 0.1% bovine serum albumin was added at 12.5 ng/ml for various times using 1×10^7 cells per data point. Tubes were placed on ice and 10 volumes of PBS with 0.1 mM sodium orthovanadate were added to each tube. Eosinophils were pelleted by centrifugation at 300×g and resuspended in 0.6 ml lysis buffer (20 mM Tris-Cl, pH 7.4, 100 mM NaCl, 10 mM sodium pyrophosphate, 2 mM EDTA, 50 mM NaF, 1 mM sodium orthovanadate, 3% Triton X-100) with protease inhibitors (10 μg/ml aprotinin, 10 μg/ml leupeptin, and 0.2 mM phenylmethylsulfonyl fluoride).
After incubation on ice for 15 min, debris was pelleted by centrifugation at 16,000×g. βc was immunoprecipitated from the lysate by rotating overnight at 4° with a 1:300 dilution of anti-βcantibody (Upstate Biotechnology, Lake Placid, N.Y.). Twenty microliters of protein A-Sepharose (Pharmacia Biotech, Uppsala, Sweden) were added to each lysate, and the incubation was continued one hour. […]

Substance: IL-5: Recombinant human IL-5 (Biosource)
- time of peak tyrosine phosphorylation of βc (12.5 ng/ml human IL-5, 37° C.): 5 to 10 min
- time to tyrosine phosphorylation of βc (12.5 ng/ml human IL-5, 37° C.): ≤ 1 min
- time by which dephosphorylation was evident (12.5 ng/ml human IL-5, continued presence): ≤ 30 min
